Reference: patent US7713934B2, “Thrombin peptide derivatives” (The Board of Regents, The University of Texas System, priority 2002, dated 2010)

How the values were obtained:
[1] = test system: full-thickness, 2 cm-diameter excisions on the dorsum; assay: Wound closure, full-thickness excisions in rats (Example 2, TP508-Ser); type: in vivo, male Sprague-Dawley rats; conditions: for wound area reduced: 0.1 μg per wound, topical; for wound healing activity compared with TP508: Example 2, 0.1 μg per wound
Description: (§1) Two, full-thickness, 2 cm-diameter excisions were created on the dorsum of male Sprague-Dawley rats. […] Wound size was determined on post-wounding days 3, 7, and 10 by tracing the perimeter of the wound onto an acetate sheet and using digital analysis to compute the surface area of each wound.
Each group contained 8 rats.
(§2) Saline was used as the vehicle for the experiment. […] The working solution was maintained on ice throughout the experiment.
(§3) The working solution was maintained on ice throughout the experiment.
(§4) On post-wounding days 3, 7, and 10, the wounds were evaluated by tracing the wound perimeter onto a flexible acetate sheet, then determining wound area with digital analysis software.
Each data point represents the mean and standard error of the mean of 16 wounds from 8 rats. Statistical comparisons between groups were made using a repeated measures analysis of variance; Fisher's LSD was used for post hoc testing between groups.

[2] = Dimer formation / stability in saline solution by HPLC; type: physicochemical; conditions: 5 mg/mL, 4° C.
Description: Over a time period of 6 months, triplicate samples were taken at intervals from the solution.
The area percent of each HPLC peak was plotted in FIG. 3. The peak area percent corresponds directly to the percent of material in solution.
Over a time period of 1 month, triplicate samples were taken at intervals from the solution. […] The area percent of each HPLC peak was plotted in FIG. 4. The peak area percent corresponds directly to the percent of material in solution.
Over a time period of 1 month, triplicate samples were taken at intervals from the solution. […] The area percent of each HPLC peak was plotted in FIG. 5. The peak area percent corresponds directly to the percent of material in solution.

[3] = test system: full-thickness, 2 cm-diameter excisions on the dorsum; assay: Wound closure, full-thickness excisions in rats (Example 1, TP508-Ala); type: in vivo, male Sprague-Dawley rats; conditions: for wound area smaller than controls: 0.1 μg per wound, topical; for wound healing activity compared with TP508: Example 1, 0.1 μg per wound
Description: as §1
Each group contained 6 rats.
as §2, §3, §4
Each data point represents the mean and standard error of the mean of 12 wounds from 6 rats. Statistical comparisons between groups were made using a repeated measures analysis of variance; Fisher's LSD was used for post hoc testing between groups.

thrombin receptors = assay: Peptide competition for [125I]-alpha-thrombin binding to ME cells; conditions: for Concentration Required for 30% Inhibition: [125I]-alpha-thrombin binding to ME cells; for fold higher concentration than p508-530 required for 30% inhibition of [125I]-alpha-thrombin binding: relative to p508-530
Description: Thrombin peptide derivatives are believed to activate cells by binding to a high-affinity cell-surface thrombin receptor known as the non-proteolytically-activated thrombin receptor (hereinafter “NPAR”) (R. Horvat, et. al., J. Cell Sci. 108, 1155-1164 1995). Compounds which stimulate NPAR are said to be thrombin receptor agonists. NPAR activation can be assayed based on the ability of molecules to stimulate cell proliferation when added to fibroblasts in the presence of submitogenic concentrations of thrombin or molecules that activate protein kinase C or compete with ^125I-thrombin for high affinity binding17 to thrombin receptors, as disclosed in U.S. Pat. Nos. 5,352,664 and 5,500,412 and in Glenn et al., J. Peptide Research 1:65 (1988).
To further identify regions of thrombin involved in high-affinity binding and generation of mitogenic signals, two peptides representing specific domains within p508-530 were tested. The first peptide represented residues 519 to 530 of the B-chain region of human prothrombin, a region of thrombin that is highly conserved among serine proteases. The second peptide represented residues 517 to 520 of prothrombin, a region of thrombin homologous to the fibronectin cell binding domain.
Because p517-520 is homologous to the fibronectin cell binding domain, a peptide having the sequence Arg-Gly-[…]-Ser (SEQ ID NO:18; the sequence of the fibronectin specific peptide) was also tested for its ability to compete for [^125I]-alpha-thrombin binding.

NIL cells = conditions: increasing concentrations, quiescent NIL cells, 2 and 4 nM alpha-thrombin; FIG. 6 of U.S. Pat. No. 5,500,412; cited from earlier work

H-Ala-Gly-Tyr-Lys-Pro-Asp-Glu-Gly -Lys-Arg-Gly-Asp-Ala-Ser-Glu-Gly-Asp-Ser-Gly-Gly-Pro-Phe-Val-NH2 (H-AGYKPDEGKRGDASEGDSGGPFV-NH2) [TP508-Ser]
wound area reduced ([1]; post-wounding Day 7): 18.2% | wound area reduced ([1]; post-wounding Day 10): 43.3% | wound healing activity compared with TP508 [1]: equivalent to TP508 in efficacy and potency | wound healing activity compared with TP508 ([1]; listed as TP508 Cys→Ser): about the same level of activity toward the thrombin receptor as TP508

H-Ala-Gly-Tyr-Lys-Pro-Asp-Glu-Gly-Lys-Arg -Gly-Asp-Ala-Ala-Glu-Gly-Asp-Ser-Gly-Gly-Pro-Phe-Val-NH2 (H-AGYKPDEGKRGDAAEGDSGGPFV-NH2) [TP508-Ala]
HPLC peak area of monomer / peptide over time ([2]; 1 month): no decrease over time | conversion to dimer ([2]; 1 month): does not convert to dimer | conversion to dimer ([2]; 6 months): no dimerization | wound area smaller than controls ([3]; post-wounding Day 7): 18.7% | wound area smaller than controls ([3]; post-wounding Day 10): 25.1% | wound healing activity compared with TP508 [3]: equivalent to TP508 in efficacy and potency | wound healing activity compared with TP508 ([3]; listed as TP508 Cys→Ala): about the same level of activity toward the thrombin receptor as TP508

Arg-Gly-Ala-Ser (RGAS; Fibronectin Specific Peptide)
competition with [125I]-alpha-thrombin for binding (thrombin receptors; at a concentration of 1.3 μM): did not compete

RGDA (Thrombin Peptide) [p517-520]
effect on DNA synthesis (NIL cells): inhibited DNA synthesis | Concentration Required for 30% Inhibition (thrombin receptors): 300 nM | fold higher concentration than p508-530 required for 30% inhibition of [125I]-alpha-thrombin binding (thrombin receptors): 50 fold

DACEGDSGGPFV (Thrombin Peptide Derivative) [p519-530]
effect on DNA synthesis (NIL cells): enhanced DNA synthesis | Concentration Required for 30% Inhibition (thrombin receptors): 200 nM | Maximal % Inhibition (thrombin receptors; at 800 nM, ME cells): 51% | fold higher concentration than p508-530 required for 30% inhibition of [125I]-alpha-thrombin binding (thrombin receptors): 33 fold
